Calls of active or inactive are those of the source. The calls are words filed in the database; no cut-off is given here.
Tests used:
[1] = target: Sodium-dependent serotonin transporter (Homo sapiens, UniProt P31645); assay: Displacement of [3H]paroxetine from 5HT reuptake site
[2] = target: Sodium-dependent serotonin transporter (Rattus norvegicus) (UniProt P31652); assay: Receptor occupancy ex vivo by inhibition of [3H]paroxetine binding to 5HT reuptake site in Sprague-Dawley rat frontal cortex tissue at 30 mg/kg, po relative to control; format: functional, organism-based; design: dose 30 mg/kg
Chain of Sodium-dependent serotonin transporter (Rattus norvegicus) (P31652 whole entry): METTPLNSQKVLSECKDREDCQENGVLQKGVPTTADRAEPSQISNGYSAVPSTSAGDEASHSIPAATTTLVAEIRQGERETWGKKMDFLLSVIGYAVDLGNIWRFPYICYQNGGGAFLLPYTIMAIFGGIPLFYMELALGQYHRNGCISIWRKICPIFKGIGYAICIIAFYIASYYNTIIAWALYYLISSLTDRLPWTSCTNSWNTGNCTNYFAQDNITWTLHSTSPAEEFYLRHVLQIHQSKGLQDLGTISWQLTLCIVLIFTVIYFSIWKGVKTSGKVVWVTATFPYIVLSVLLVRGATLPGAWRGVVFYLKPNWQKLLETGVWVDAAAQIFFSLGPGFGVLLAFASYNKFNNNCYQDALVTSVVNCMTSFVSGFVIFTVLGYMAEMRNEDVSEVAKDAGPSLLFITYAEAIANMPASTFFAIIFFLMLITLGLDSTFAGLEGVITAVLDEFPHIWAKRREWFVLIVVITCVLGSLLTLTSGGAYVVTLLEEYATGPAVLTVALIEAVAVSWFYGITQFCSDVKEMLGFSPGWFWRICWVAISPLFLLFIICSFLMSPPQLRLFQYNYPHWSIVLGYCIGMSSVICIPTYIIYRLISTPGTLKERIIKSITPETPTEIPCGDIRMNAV

Rattus norvegicus [3] = assay: Increase in 5HT level in Sprague-Dawley rat hypothalamus by microdialysis at 30 mg/kg, po (basal value set at 100%); format: functional
[4] = target: T1, 5-hydroxytryptamine receptor 1A (Rattus norvegicus) (UniProt P19327); assay: Receptor occupancy ex vivo by inhibition of [3H]8-OH-DPAT binding to 5HT1A receptor in Sprague-Dawley rat frontal cortex tissue at 30 mg/kg, po relative to control; format: functional, organism-based; design: dose 30 mg/kg
T1 sequence (whole entry): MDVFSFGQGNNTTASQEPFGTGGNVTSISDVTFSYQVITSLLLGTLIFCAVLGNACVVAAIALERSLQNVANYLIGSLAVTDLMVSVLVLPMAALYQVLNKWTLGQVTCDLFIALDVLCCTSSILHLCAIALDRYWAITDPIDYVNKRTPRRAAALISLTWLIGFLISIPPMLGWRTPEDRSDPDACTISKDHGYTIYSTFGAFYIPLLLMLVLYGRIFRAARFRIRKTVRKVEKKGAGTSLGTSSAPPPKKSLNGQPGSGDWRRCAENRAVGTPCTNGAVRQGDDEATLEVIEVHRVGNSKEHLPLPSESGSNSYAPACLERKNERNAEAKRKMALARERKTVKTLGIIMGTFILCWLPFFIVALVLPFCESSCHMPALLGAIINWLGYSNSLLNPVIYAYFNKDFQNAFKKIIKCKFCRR

Rattus norvegicus [5] = assay: Ability to block PCA-induced depletion of 5HT concentration in po dosed rat brain after 2 hrs; format: functional
Rattus norvegicus [6] = assay: Ability to block 8-OH-DPAT-induced increase of corticosterone in po dosed rat serum after 1 hr; format: functional
Rattus norvegicus [7] = assay: Increase in 5HT level in Sprague-Dawley rat hypothalamus by microdialysis at 20 mg/kg, po (basal value set at 100%); format: functional
Rattus norvegicus [8] = assay: Ability to block PCA-induced depletion of 5HT concentration in sc dosed rat brain after 2 hrs; format: functional
Rattus norvegicus [9] = assay: Reduction of serotonergic neuron level in dorsal raphe nucleus of anesthetized rat after 3 days of sub-chronic administration at 10 mg/kg/day; format: functional, organism-based
Rattus norvegicus [10] = assay: Increase in 5HT level in Sprague-Dawley rat hypothalamus by microdialysis at 10 mg/kg, ip (basal value set at 100%); format: functional; conditions: route intraperitoneal
Rattus norvegicus [11] = assay: Increase in 5HT level in Sprague-Dawley rat hypothalamus by microdialysis at 10 mg/kg, po (basal value set at 100%); format: functional
Rattus norvegicus [12] = assay: Ability to block 8-OH-DPAT-induced increase of corticosterone in sc dosed rat serum after 1 hr; format: functional
Rattus norvegicus [13] = assay: Increase in 5HT level in Sprague-Dawley rat hypothalamus by microdialysis at 20 mg/kg, sc (basal value set at 100%); format: functional; conditions: route subcutaneous

Chain of Sodium-dependent serotonin transporter (P31645 whole entry): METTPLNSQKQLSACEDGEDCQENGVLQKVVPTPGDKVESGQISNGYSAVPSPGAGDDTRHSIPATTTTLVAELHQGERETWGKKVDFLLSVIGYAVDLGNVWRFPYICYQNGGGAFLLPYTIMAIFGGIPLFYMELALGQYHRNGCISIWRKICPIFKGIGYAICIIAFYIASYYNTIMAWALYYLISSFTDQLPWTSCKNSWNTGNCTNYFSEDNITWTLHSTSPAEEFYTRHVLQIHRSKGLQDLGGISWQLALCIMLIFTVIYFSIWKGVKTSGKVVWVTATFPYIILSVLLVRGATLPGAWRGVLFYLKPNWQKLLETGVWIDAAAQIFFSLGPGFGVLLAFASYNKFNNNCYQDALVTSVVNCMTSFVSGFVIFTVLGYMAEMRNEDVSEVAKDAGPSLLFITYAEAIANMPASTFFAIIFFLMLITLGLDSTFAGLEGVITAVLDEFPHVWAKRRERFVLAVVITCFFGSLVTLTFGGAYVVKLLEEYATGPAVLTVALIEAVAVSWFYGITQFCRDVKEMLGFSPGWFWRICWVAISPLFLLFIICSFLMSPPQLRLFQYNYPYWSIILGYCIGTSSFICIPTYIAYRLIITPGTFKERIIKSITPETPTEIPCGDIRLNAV

Row | Structure (SMILES) | Ki [1] [nM] | inhibition [2] [%] | Activity (Rattus norvegicus [3]) [%] | inhibition [4] [%] | ED50 (Rattus norvegicus [5]) [mg/kg] | ED50 (Rattus norvegicus [6]) [mg/kg] | further results
1 | O[C@H](COc1cccc2[nH]ccc12)CN1CCC(c2cc3ccc(F)cc3s2)CC1 | 1.99 | 13 | 130 | 9 |  |  | 
2 | COc1cccc2sc([C@@H]3CCN(C[C@H](O)COc4cccc5[nH]ccc45)[C@@H](C)C3)cc12 | 0.27 | 11 | 368 | 13 | 3.71 | 21.1 | 
3 | COc1cccc2sc(C3CCN(C[C@H](O)COc4cccc5[nH]ccc45)CC3)cc12 | 12.6 | 100 |  | 4 |  |  | 
4 | C[C@H]1C[C@H](c2cc3cc(Cl)ccc3s2)CCN1C[C@H](O)COc1cccc2[nH]ccc12 | 0.58 | 39 |  | 47 | 3.65 | 26 | Activity (Rattus norvegicus [7]): 287%
5 | COc1cccc2sc([C@H]3CCN(C[C@H](O)COc4cccc5[nH]ccc45)[C@@H](C)C3)cc12 | 13.6 | 88 |  | 40 |  |  | 
6 | O[C@H](COc1cccc2[nH]ccc12)CN1CCC(c2cc3ccccc3s2)CC1 | 16.7 | 80 |  | 6 |  |  | 
7 | Cc1cc2c(OC[C@@H](O)CN3CC[C@@H](c4cc5cc(F)ccc5s4)C[C@@H]3C)cccc2[nH]1 | 0.24 | 30 | 315 | 6 |  |  | 
8 | Cc1cccc2sc([C@@H]3CCN(C[C@H](O)COc4cccc5[nH]ccc45)[C@@H](C)C3)cc12 | 0.44 | 9 | 210 | 20 | 1.65 | > 30 | 
9 | COc1ccc2cc([C@@H]3CCN(C[C@H](O)COc4cccc5[nH]ccc45)[C@@H](C)C3)sc2c1 | 1.1 | 29 | 140 | 14 |  |  | ED50 (Rattus norvegicus [8]): 1.07 mg/kg
10 | CNCCC(Oc1ccc(C(F)(F)F)cc1)c1ccccc1 (stereo not drawn) [FLUOXETINE] |  |  |  |  |  |  | Activity (Rattus norvegicus [9]): Active; Activity (Rattus norvegicus [10]): 160%
11 | COc1cccc2sc([C@@H]3CCN(C[C@H](O)COc4cccc5[nH]c(C)cc45)[C@@H](C)C3)cc12 |  | 26 |  | -3 | 3.79 | 3.2 | Activity (Rattus norvegicus [9]): inactive; Activity (Rattus norvegicus [11]): 713%
12 | COc1cccc2sc(C3CCN(C[C@H](O)COc4cccc5[nH]c(C)cc45)CC3)cc12 | 51.2 |  |  |  |  |  | 
13 | Cc1cc2c(OC[C@@H](O)CN3CC[C@@H](c4cc5ccccc5s4)C[C@@H]3C)cccc2[nH]1 |  | 17 |  | 5 |  |  | Activity (Rattus norvegicus [11]): 119%
14 | C[C@H]1C[C@H](c2cc3ccc(F)cc3s2)CCN1C[C@H](O)COc1cccc2[nH]ccc12 | 0.31 | 8 | 479 | 23 | 0.69 | > 30 | ED50 (Rattus norvegicus [12]): 5.08 mg/kg
15 | C[C@H]1C[C@H](c2cc3ccccc3s2)CCN1C[C@H](O)COc1cccc2[nH]ccc12 | 0.51 | -2 |  | 1 |  |  | ED50 (Rattus norvegicus [12]): 2.83 mg/kg; Activity (Rattus norvegicus [13]): 264%; ED50 (Rattus norvegicus [8]): 0.28 mg/kg
16 | COc1cccc2sc([C@@H]3CCN(C[C@H](O)COc4cccc5[nH]ccc45)[C@H](C)C3)cc12 |  | 70 |  | 28 |  |  | 
17 | COc1cccc2sc([C@H]3CCN(C[C@H](O)COc4cccc5[nH]ccc45)[C@H](C)C3)cc12 | 1.15 | 8 |  | 33 | > 10 | > 30 | Activity (Rattus norvegicus [7]): 330%
